Experimental data: patent EP0346760A2, “Derivatives of nigericine, methods for their preparation, compositions containing them and their use” (priority 1988, dated 1989)
≈ marks a conversion by molar mass, not a printed value. Read-outs that look alike come from different tables or passages of the source.

Assays:
Format in all cases: cell-based
[1] = tested on: Staph. aureus (285); experiment: Agar dilution test (Lorian), antibacterial activity; conditions: Staphylococcus aureus
Method: (§1) Die antibakterielle Wirksamkeit der erfindungsgemäßen Verbindungen wurde im Agar-Verdünnungstest nach Lorian (Antibiotics in Laboratory Medicine, Williams & Wilkins, Baltimore/London, 1980) bestimmt. Dabei wurden die Präparate in einer geometrischen Verdünnungsreihe mit dem Faktor 2 in Müller Hinton Agar verdünnt. Eine Petrischale enthielt nur Müller Hinton Agar und diente zur Kontrolle des Bakterienwachstums. Die Petrischalen wurden dann mit einem Denley-Multipoint-Inokulator, welcher 0,6 µl einer 1 : 100 verdünnten 18-Stunden-Kultur der Testbakterien übertrug, mit den entsprechenden Testbakterien beimpft. Nach 16 bis 18 Stunden Inkubation bei 37°C wurden die Petrischalen makroskopisch auf Bakterienwachstum untersucht.
(§2) Die niedrigste Konzentration der erfindungsgemäßen Verbindungen, welche das Bakterienwachstum noch vollständig verhinderte, wurde als MIC (Minimum Inhibitory Concentration) angenommen.
(§3) In Tabelle 3 ist die Wirkung (Angabe des MIC in µg/ml) von verschiedenen erfindungsgemäßen Verbindungen gegen folgende Bakterien aufgeführt: Staph. aureus (SG 511), Staph. aureus (285), Staph. aureus (503), Strept. pyogenes (308 A), Strept. pyogenes (77 A), Strept. faecium (D). Tabelle 3

[2] = tested on: Staph. aureus (503); experiment: as above; conditions: Staphylococcus aureus
Method: as §1, §2, §3

[3] = tested on: Staph. aureus (SG 511); experiment: as above; conditions: Staphylococcus aureus
Method: as §1, §2, §3

[4] = tested on: Strept. faecium (D); experiment: as above; conditions: Enterococcus faecium
Method: as §1, §2, §3

[5] = tested on: Strept. pyogenes (308 A); experiment: as above; conditions: Streptococcus pyogenes
Method: as §1, §2, §3

[6] = tested on: Strept. pyogenes (77 A); experiment: as above; conditions: Streptococcus pyogenes
Method: as §1, §2, §3

[7] = tested on: Vaccina; conditions: HeLa or Vero cells, 72 h CPE, about 50 % of the cells survive
[8] = tested on: Herpes I; conditions: HeLa or Vero cells, 72 h CPE, about 50 % of the cells survive
[9] = tested on: Herpes II; conditions: HeLa or Vero cells, 72 h CPE, about 50 % of the cells survive
[10] = tested on: Influenza A; conditions: HeLa or Vero cells, 72 h CPE, about 50 % of the cells survive
[11] = tested on: Rhinovirus II; conditions: Rhino. II; HeLa or Vero cells, 72 h CPE; about 50 % of the cells survive
[12] = tested on: HeLa- bzw. Vero-Zellen; experiment: Maximum tolerated dose (DTM) in cell culture; conditions: HeLa or Vero cells
Method: Die Prüfsubstanzen wurden in Zellkulturmedium (Dulbecco's MEM) gelöst und in einer geometrischen Verdünnungsreihe, Faktor 3, in Standard-Mikrotiterplatten in 100 µl Zellkulturmedium vorgelegt. Anschließend erfolgte die Zugabe von 100 µl einer Suspension von HeLa- bzw. Vero-Zellen in Medium mit 5 % fötalem Kälberserum in einer Zelldichte von 2 x 10⁵ Zellen/ml. Die Ansätze wurden mit 50 µl einer Suspension des jeweiligen Test-Virus infiziert, die so eingestellt war, daß die Zellen innerhalb von 72 h einen cytopathogenen Effekt (CPE) zeigten. Die Auswertung erfolgte durch mikroskopische Begutachtung des Zellrasens und photometrische Messung der Neutralrotaufnahme (Farbtest nach Finter). Als MHK wurde die Konzentration des Präparats angenommen (µg/ml), bei der etwa 50 % der Zellen die Infektion überlebten.
In Spalte 9 ist die DTM (Dosis Tolerata Maxima) in µg/ml angegeben. Tabelle 4

[13] = tested on: Adeno 5; conditions: HeLa or Vero cells, 72 h CPE, concentration at which about 50 % of the cells survive the infection
[14] = tested on: Paramyxo. III; conditions: HeLa or Vero cells, 72 h CPE, about 50 % of the cells survive
[15] = Staph. aureus (285), Müller Hinton Agar, 16 to 18 h at 37°C, read-out: MIC
[16] = Staph. aureus (503), Müller Hinton Agar, 16 to 18 h at 37°C, read-out: MIC
[17] = Staph. aureus (SG 511), Müller Hinton Agar, 16 to 18 h at 37°C, lowest concentration that completely prevents growth, read-out: MIC
[18] = Strept. faecium (D), Müller Hinton Agar, 16 to 18 h at 37°C, read-out: MIC
[19] = Strept. pyogenes (308 A), Müller Hinton Agar, 16 to 18 h at 37°C, read-out: MIC
[20] = Strept. pyogenes (77 A), Müller Hinton Agar, 16 to 18 h at 37°C, read-out: MIC

Compound	MIC [1, 15]	MIC [2, 16]	MIC [3, 17]	MIC [4, 18]	MIC [5, 19]	MIC [6, 20]	MHK [7]	MHK [8]	MHK [9]	MHK [10]	MHK [11]	DTM (Dosis Tolerata Maxima) [12]	MHK [13]	MHK [14]	MIC [1]	MIC [2]	MIC [3]	MIC [4]	MIC [5]	MIC [6]
COC1CC(CC2CCC(C)C(C(C)C(=O)O)O2)OC2(OC(C)(C3CCC(C)(C4OC(C5OC(O)(CCl)C(C)CC5C)CC4C)O3)CC2C)C1C (stereo not shown) [Beispiel 2]	0.098 µg/mL (≈ 0.132 µM)	0.025 µg/mL (≈ 0.0336 µM)	0.098 µg/mL (≈ 0.132 µM)	0.391 µg/mL (≈ 0.526 µM)	0.013 µg/mL (≈ 0.0175 µM)	0.007 µg/mL (≈ 0.00942 µM)	0,49 µg/ml	0,05 µg/ml	< 0,02 µg/ml	0,05 µg/ml	0,49 µg/ml	1,48 µg/ml	–	–	–	–	–	–	–	–
COC1CC(CC2CCC(C)C(C(C)C(=O)O)O2)OC2(OC(C)(C3CCC(C)(C4OC(C5OC(O)(C[N+](=O)[O-])C(C)CC5C)CC4C)O3)CC2C)C1C (stereo not shown) [Beispiel 5]	0.049 µg/mL (≈ 0.065 µM)	0.025 µg/mL (≈ 0.0332 µM)	0.049 µg/mL (≈ 0.065 µM)	0.098 µg/mL (≈ 0.13 µM)	0.004 µg/mL (≈ 0.00531 µM)	0.004 µg/mL (≈ 0.00531 µM)	–	–	–	–	–	–	–	–	–	–	–	–	–	–
CCCCOCC1(O)OC(C2CC(C)C(C3(C)CCC(C4(C)CC(C)C5(OC(CC6CCC(C)C(C(C)C(=O)O)O6)CC(OC)C5C)O4)O3)O2)C(C)CC1C (stereo not shown) [Beispiel 8]	1.56 µg/mL (≈ 2 µM)	0.78 µg/mL (≈ 0.999 µM)	0.78 µg/mL (≈ 0.999 µM)	3.13 µg/mL (≈ 4.01 µM)	0.19 µg/mL (≈ 0.243 µM)	0.098 µg/mL (≈ 0.125 µM)	4,44 µg/ml	4,44 µg/ml	0,16 µg/ml	0,05 µg/ml	4,44 µg/ml	13,3 µg/ml	0,16 µg/ml	4,44 µg/ml	–	–	–	–	–	–
COCC1(O)OC(C2CC(C)C(C3(C)CCC(C4(C)CC(C)C5(OC(CC6CCC(C)C(C(C)C(=O)O)O6)CC(OC)C5C)O4)O3)O2)C(C)CC1C (stereo not shown) [Beispiel 7]	0.78 µg/mL (≈ 1.06 µM)	0.39 µg/mL (≈ 0.528 µM)	0.78 µg/mL (≈ 1.06 µM)	3.13 µg/mL (≈ 4.24 µM)	0.39 µg/mL (≈ 0.528 µM)	0.19 µg/mL (≈ 0.257 µM)	0,49 µg/ml	0,05 µg/ml	0,05 µg/ml	0,05 µg/ml	1,48 µg/ml	4,44 µg/ml	0,16 µg/ml	–	–	–	–	–	–	–
COC1CC(CC2CCC(C)C(C(C)C(=O)O)O2)OC2(OC(C)(C3CCC(C)(C4OC(C5OC(O)(CO[Si](c6ccccc6)(c6ccccc6)C(C)(C)C)C(C)CC5C)CC4C)O3)CC2C)C1C (stereo not shown) [Beispiel 9]	–	–	–	–	–	–	4,44 µg/ml	0,05 µg/ml	0,05 µg/ml	0,05 µg/ml	4,44 µg/ml	4,44 µg/ml	0,05 µg/ml	4,44 µg/ml	0.78 µg/mL (≈ 0.81 µM)	0.78 µg/mL (≈ 0.81 µM)	0.78 µg/mL (≈ 0.81 µM)	0.7 µg/mL (≈ 0.727 µM)	0.025 µg/mL (≈ 0.026 µM)	0.025 µg/mL (≈ 0.026 µM)
COC1CC(CC2CCC(C)C(C(C)C(=O)O)O2)OC2(OC(C)(C3CCC(C)(C4OC(C5OC(O)(CBr)C(C)CC5C)CC4C)O3)CC2C)C1C (stereo not shown) [Beispiel 3]	0.013 µg/mL (≈ 0.0165 µM)	0.007 µg/mL (≈ 0.00888 µM)	0.013 µg/mL (≈ 0.0165 µM)	0.098 µg/mL (≈ 0.124 µM)	< 0.002 µg/mL	< 0.002 µg/mL	–	0,01 µg/ml	0,3 µg/ml	0,03 µg/ml	0,3 µg/ml	0,89 µg/ml	0,01 µg/ml	–	–	–	–	–	–	–
COC1CC(CC2CCC(C)C(C(C)C(=O)O)O2)OC2(OC(C)(C3CCC(C)(C4OC(C5OC(O)(CSC#N)C(C)CC5C)CC4C)O3)CC2C)C1C (stereo not shown) [Beispiel 4]	–	–	–	–	–	–	–	–	–	–	–	–	–	–	0.78 µg/mL (≈ 1.02 µM)	0.78 µg/mL (≈ 1.02 µM)	–	0.78 µg/mL (≈ 1.02 µM)	0.098 µg/mL (≈ 0.128 µM)	0.098 µg/mL (≈ 0.128 µM)
